Experimental data reported in EP4722207A1, “OXOISOINDOLINYL-SUBSTITUTED TETRAHYDROPYRIMIDINEDIONE DERIVATIVE AND USE THEREOF” (Gluetacs Therapeutics (Shanghai) Co., Ltd., priority 2023, dated 2024).

Assays:
Assay type in all cases: cell-based
Details in all cases: compounds at 50 nM and 500 nM, 24 hours
WEE1 = molecular target: T1, WEE1 (Homo sapiens, UniProt P30291+Q96SW2); assay: Western-blot assay, substrate protein degradation in hPBMCs: WEE1
T1 construct: effects of the compounds of the present disclosure on the expression of target proteins in cells; endogenous in cells; host or cells: human PBMCs (hPBMCs)
T1 sequence (P30291 whole entry): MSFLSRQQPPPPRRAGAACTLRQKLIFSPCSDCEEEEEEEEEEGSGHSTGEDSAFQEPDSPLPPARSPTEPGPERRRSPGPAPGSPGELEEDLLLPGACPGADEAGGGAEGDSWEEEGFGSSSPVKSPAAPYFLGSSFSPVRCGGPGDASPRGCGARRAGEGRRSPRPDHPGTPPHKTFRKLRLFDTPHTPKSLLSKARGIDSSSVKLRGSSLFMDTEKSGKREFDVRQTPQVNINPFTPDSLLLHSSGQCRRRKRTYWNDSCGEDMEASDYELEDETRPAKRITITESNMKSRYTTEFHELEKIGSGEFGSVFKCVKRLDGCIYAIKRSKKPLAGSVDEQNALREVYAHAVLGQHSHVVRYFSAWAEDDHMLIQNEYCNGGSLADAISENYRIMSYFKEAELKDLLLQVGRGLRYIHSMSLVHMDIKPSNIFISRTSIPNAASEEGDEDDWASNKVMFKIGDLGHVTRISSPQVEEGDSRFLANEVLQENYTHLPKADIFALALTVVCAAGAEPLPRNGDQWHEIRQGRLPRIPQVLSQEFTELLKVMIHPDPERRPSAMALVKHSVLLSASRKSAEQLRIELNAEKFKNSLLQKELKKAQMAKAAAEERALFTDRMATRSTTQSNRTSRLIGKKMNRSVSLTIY
T1 sequence (Q96SW2 whole entry): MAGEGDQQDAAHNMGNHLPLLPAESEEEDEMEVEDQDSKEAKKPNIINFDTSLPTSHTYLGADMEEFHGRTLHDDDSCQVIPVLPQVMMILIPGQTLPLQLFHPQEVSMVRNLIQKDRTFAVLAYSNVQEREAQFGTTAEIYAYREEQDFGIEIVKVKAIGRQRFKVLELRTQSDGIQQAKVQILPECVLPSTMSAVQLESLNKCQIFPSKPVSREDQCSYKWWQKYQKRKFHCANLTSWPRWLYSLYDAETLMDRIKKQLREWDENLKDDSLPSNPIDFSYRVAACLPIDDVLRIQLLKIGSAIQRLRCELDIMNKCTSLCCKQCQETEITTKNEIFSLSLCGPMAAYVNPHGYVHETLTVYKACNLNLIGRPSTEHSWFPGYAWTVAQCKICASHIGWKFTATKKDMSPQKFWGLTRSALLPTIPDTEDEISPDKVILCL
T1 sequence (Q16531 whole entry partner): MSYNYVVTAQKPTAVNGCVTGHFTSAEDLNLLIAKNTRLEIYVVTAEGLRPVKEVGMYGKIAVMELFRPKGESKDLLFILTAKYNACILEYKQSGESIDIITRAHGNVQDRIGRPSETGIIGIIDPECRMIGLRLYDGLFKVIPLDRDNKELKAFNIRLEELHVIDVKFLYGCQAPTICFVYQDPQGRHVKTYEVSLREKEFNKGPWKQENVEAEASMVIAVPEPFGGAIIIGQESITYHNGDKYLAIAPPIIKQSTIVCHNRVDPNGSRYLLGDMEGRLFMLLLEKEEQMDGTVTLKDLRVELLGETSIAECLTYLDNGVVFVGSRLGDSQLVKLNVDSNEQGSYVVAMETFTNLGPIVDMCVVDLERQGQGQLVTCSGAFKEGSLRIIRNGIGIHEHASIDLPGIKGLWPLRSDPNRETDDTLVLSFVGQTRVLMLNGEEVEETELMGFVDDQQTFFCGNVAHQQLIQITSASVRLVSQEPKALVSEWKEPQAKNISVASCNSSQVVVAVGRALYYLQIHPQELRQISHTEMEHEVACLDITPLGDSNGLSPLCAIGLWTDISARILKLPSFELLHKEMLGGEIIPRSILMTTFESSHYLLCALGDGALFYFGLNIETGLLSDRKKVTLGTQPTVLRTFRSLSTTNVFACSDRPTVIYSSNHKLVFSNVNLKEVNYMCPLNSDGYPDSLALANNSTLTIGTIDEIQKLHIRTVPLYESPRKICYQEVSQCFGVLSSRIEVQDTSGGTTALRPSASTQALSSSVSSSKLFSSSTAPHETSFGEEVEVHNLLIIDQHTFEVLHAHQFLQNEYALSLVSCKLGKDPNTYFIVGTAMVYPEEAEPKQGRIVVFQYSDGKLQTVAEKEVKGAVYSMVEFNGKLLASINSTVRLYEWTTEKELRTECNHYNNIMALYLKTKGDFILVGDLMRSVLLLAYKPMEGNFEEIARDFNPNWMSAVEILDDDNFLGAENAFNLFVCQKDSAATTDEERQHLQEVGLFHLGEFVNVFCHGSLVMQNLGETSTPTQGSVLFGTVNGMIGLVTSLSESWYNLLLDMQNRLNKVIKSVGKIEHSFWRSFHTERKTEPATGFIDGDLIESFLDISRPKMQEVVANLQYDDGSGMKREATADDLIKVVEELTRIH

IKZF1 = molecular target: T2, IKZF1 (Homo sapiens, UniProt Q13422+Q96SW2); assay: Western-blot assay, substrate protein degradation in hPBMCs: IKZF1
T2 construct: effects of the compounds of the present disclosure on the expression of target proteins in cells; endogenous in cells; host or cells: human PBMCs (hPBMCs)
T2 sequence (Q13422 whole entry): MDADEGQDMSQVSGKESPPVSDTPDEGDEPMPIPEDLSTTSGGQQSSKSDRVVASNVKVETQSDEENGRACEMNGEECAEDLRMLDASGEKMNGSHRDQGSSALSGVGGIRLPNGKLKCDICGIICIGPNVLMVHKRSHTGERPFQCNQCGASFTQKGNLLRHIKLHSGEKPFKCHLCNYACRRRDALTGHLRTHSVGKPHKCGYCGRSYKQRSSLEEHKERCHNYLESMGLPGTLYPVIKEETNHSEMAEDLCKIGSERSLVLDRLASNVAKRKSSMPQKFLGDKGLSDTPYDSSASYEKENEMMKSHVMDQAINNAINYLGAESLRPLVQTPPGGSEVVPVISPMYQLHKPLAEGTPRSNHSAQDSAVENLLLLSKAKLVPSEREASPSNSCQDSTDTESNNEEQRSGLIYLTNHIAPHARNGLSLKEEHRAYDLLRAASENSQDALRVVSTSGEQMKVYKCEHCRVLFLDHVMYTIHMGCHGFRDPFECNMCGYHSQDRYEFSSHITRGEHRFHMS
T2 sequence (Q96SW2 whole entry): as the sequence (Q96SW2 whole entry) above
T2 sequence (Q16531 whole entry partner): as the sequence (Q16531 whole entry partner) above

IKZF2 = molecular target: T3, IKZF2 (Homo sapiens, UniProt Q96SW2+Q9UKS7); assay: Western-blot assay, substrate protein degradation in hPBMCs: IKZF2
T3 construct: effects of the compounds of the present disclosure on the expression of target proteins in cells; endogenous in cells; host or cells: human PBMCs (hPBMCs)

IKZF3 = molecular target: T4, IKZF3 (Homo sapiens, UniProt Q96SW2+Q9UKT9); assay: Western-blot assay, substrate protein degradation in hPBMCs: IKZF3
T4 construct: effects of the compounds of the present disclosure on the expression of target proteins in cells; endogenous in cells; host or cells: human PBMCs (hPBMCs)
T4 sequence (Q9UKT9 whole entry): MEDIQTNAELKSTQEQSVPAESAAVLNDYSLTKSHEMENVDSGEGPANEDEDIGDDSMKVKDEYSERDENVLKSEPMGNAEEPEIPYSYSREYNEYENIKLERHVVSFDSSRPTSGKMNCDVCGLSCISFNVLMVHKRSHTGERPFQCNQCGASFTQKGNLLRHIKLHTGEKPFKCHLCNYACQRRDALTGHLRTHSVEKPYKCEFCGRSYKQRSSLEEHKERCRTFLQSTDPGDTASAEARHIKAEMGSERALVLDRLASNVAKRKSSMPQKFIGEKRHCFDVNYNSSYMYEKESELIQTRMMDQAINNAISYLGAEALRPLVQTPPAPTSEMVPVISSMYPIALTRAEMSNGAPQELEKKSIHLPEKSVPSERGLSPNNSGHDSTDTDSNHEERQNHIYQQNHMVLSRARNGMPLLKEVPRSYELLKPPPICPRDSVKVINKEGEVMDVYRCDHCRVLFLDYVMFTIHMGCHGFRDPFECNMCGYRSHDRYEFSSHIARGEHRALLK
T4 sequence (Q96SW2 whole entry): as the sequence (Q96SW2 whole entry) above
T4 sequence (Q16531 whole entry partner): as the sequence (Q16531 whole entry partner) above

CK1α = molecular target: T5, CK1α (Homo sapiens, UniProt P48729+Q96SW2); assay: Western-blot assay, substrate protein degradation in hPBMCs: CK1α
T5 construct: effects of the compounds of the present disclosure on the expression of target proteins in cells; endogenous in cells; host or cells: human PBMCs (hPBMCs)
T5 sequence (P48729 whole entry): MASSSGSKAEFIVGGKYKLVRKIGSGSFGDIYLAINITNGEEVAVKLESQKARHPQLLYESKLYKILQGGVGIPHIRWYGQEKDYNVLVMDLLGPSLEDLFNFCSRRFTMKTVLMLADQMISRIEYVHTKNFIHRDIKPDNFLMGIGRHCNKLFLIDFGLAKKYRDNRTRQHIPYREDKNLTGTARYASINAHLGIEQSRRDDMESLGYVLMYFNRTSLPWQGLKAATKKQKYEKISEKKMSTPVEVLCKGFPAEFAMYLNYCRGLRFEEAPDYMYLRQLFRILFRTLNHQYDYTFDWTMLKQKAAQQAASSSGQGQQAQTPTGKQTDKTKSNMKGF
T5 sequence (Q96SW2 whole entry): as the sequence (Q96SW2 whole entry) above
T5 sequence (Q16531 whole entry partner): as the sequence (Q16531 whole entry partner) above

GSPT1 = molecular target: T6, GSPT1 (Homo sapiens, UniProt P15170+Q96SW2); assay: Western-blot assay, substrate protein degradation in hPBMCs: GSPT1
T6 construct: effects of the compounds of the present disclosure on the expression of target proteins in cells; endogenous in cells; host or cells: human PBMCs (hPBMCs)
T6 sequence (P15170 whole entry): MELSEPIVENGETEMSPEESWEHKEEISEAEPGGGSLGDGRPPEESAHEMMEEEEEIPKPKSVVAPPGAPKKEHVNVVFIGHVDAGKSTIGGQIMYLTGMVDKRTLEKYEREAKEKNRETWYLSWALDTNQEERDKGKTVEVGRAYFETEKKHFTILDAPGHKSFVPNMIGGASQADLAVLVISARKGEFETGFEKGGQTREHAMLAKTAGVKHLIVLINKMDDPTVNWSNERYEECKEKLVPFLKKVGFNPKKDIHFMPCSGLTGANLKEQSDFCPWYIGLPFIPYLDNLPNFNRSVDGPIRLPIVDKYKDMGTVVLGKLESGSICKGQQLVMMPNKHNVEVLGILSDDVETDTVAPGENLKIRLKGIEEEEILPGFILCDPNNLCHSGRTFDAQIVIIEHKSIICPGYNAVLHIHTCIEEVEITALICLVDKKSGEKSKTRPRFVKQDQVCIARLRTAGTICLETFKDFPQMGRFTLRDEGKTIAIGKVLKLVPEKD
T6 sequence (Q96SW2 whole entry): as the sequence (Q96SW2 whole entry) above
T6 sequence (Q16531 whole entry partner): as the sequence (Q16531 whole entry partner) above

Structure (SMILES) | WEE1 substrate protein remaining % (WEE1) | IKZF1 substrate protein remaining % (IKZF1) | IKZF2 substrate protein remaining % (IKZF2) | IKZF3 substrate protein remaining % (IKZF3) | CK1α substrate protein remaining % (CK1α) | GSPT1 substrate protein remaining % (GSPT1)
O=C1CCN(N2C(=O)c3ccc(CN4CCC(c5cccc(Cl)c5Cl)CC4)cc3C2=O)C(=O)N1 [GT-05250, 5-((4-(2,3-dichlorophenyl)piperidin-1-yl)methyl)-2-(2,4-dioxotetrahydropyrimidin-1(2H)-yl)isoindoline-1,3-dione] | B ("B" is defined as 80%< substrate protein remaining %≤ 100%) | B ("B" is defined as 80%< substrate protein remaining %≤ 100%) | A ("A" is defined as 0% ≤ substrate protein remaining % ≤ 80%) | B ("B" is defined as 80%< substrate protein remaining %≤ 100%) | B ("B" is defined as 80%< substrate protein remaining %≤ 100%) | B ("B" is defined as 80%< substrate protein remaining %≤ 100%)
O=C1CCN(N2C(=O)c3ccc(CN4C5CC4CN(c4cccc(Cl)c4Cl)C5)cc3C2=O)C(=O)N1 [GT-05251, 5-((3-(2,3-dichlorophenyl)-3,6-diazabicyclo[3.1.1]heptan-6-yl)methyl)-2-(2,4-dioxotetrahydropyrimidin-1(2H)-yl)isoindoline-1,3-dione] | B ("B" is defined as 80%< substrate protein remaining %≤ 100%) | B ("B" is defined as 80%< substrate protein remaining %≤ 100%) | A ("A" is defined as 0% ≤ substrate protein remaining % ≤ 80%) | B ("B" is defined as 80%< substrate protein remaining %≤ 100%) | B ("B" is defined as 80%< substrate protein remaining %≤ 100%) | B ("B" is defined as 80%< substrate protein remaining %≤ 100%)
O=C1CCN(N2C(=O)c3ccc(CN4CCn5c(nnc5C(F)(F)F)C4)cc3C2=O)C(=O)N1 [GT-05253, 2-(2,4-dioxotetrahydropyrimidin-1(2H)-yl)-5-((3-(trifluoromethyl)-5,6-dihydro-[1,2,4]triazolo[4,3-a]pyrazin-7(8H)-yl)methyl)isoindoline-1,3-dione] | B ("B" is defined as 80%< substrate protein remaining %≤ 100%) | B ("B" is defined as 80%< substrate protein remaining %≤ 100%) | B ("B" is defined as 80%< substrate protein remaining %≤ 100%) | B ("B" is defined as 80%< substrate protein remaining %≤ 100%) | B ("B" is defined as 80%< substrate protein remaining %≤ 100%) | A ("A" is defined as 0% ≤ substrate protein remaining % ≤ 80%)
O=C1CCN(N2C(=O)c3ccc(CN4CCc5sccc5C4)cc3C2=O)C(=O)N1 [GT-05254, 5-((6,7-dihydrothieno[3,2-c]pyridin-5(4H)-yl)methyl)-2-(2,4-dioxotetrahydropyrimidin-1(2H)-yl)isoindoline-1,3-dione] | B ("B" is defined as 80%< substrate protein remaining %≤ 100%) | B ("B" is defined as 80%< substrate protein remaining %≤ 100%) | B ("B" is defined as 80%< substrate protein remaining %≤ 100%) | B ("B" is defined as 80%< substrate protein remaining %≤ 100%) | B ("B" is defined as 80%< substrate protein remaining %≤ 100%) | A ("A" is defined as 0% ≤ substrate protein remaining % ≤ 80%)
